Assay results published in article PMC6211316, “Synthesis and biological evaluation of 3-arylcoumarin derivatives as potential anti-diabetic agents” (Journal of Enzyme Inhibition and Medicinal Chemistry, 2018).
Like-named read-outs stand apart in the source and are kept apart here.

Legend:
[1] = DPPH free radical scavenging; settings: mean ± SD (n = 3)
Method: The effect of target compounds and vitamin C to scavenge the DPPH free radical was evaluated with the method described by Villano et al.[43] with slight modifications.
Two millilitres of different concentrations of the sample solution was added to 2.0 ml of DPPH solution (0.04 mg/mL), shaken and allowed to react at room temperature for 30 min. The absorbance value was measured at 517 nm with an ultraviolet-visible spectrophotometer. The blank reference cuvette contained absolute ethanol. All measurements were performed in triplicate. IC50 values were calculated. The percentage of DPPH radical scavenging rate of the target compound is calculated as follows: DPPH free radical scavenging effect (%)=[A0−(A1−A2)]/A0×100% where A0 is the absorbance of 2.0 ml DPPH solution +2.0 ml absolute ethanol; A1 is the absorbance of 2.0 ml DPPH solution +2.0 ml 3-arylcoumarins solution or standard; A2 is the absorbance of 2.0 ml 3-arylcoumarins solution or standard +2.0 ml absolute ethanol.

[2] = hydroxyl radical scavenging; settings: mean ± SD (n = 3), read-out: OH IC50 Value
Method: The ability of the target compounds and vitamin C to scavenge the hydroxyl radical was evaluated with method described by Ismaili et al.[29] with slight modifications. In test tube, 1.0 ml H2O2 solution (0.03%), 1.0 ml FeSO4 solution (2 mmol.L^−1), 1.0 ml salicylic acid solution (10 mmol.L^−1) and 1.0 ml of 3-arylcoumarins and standard water solution with different concentration (0.4–2.0 mg/mL) were mixed. Finally, 1.0 ml H2O2 solution (0.03%) was added to this mixture to start the reaction. Solutions were kept at 37 °C. After 30 min, the absorbance was measured at 510 nm against the reagent blank, where the distilled water was substituted for the H2O2 solution. The percentage of OH scavenging by target compounds and vitamin C was calculated the following equation: OH scavenging effect (%)=[A0−(A1−A2)]/A0×100% where A0 is the absorbance of 1.0 ml distilled water +1.0 ml H2O2 + 1.0 ml FeSO4 + 1.0 ml salicylic acid +1.0 ml H2O2; A1 is the absorbance of 1.0 ml 3-arylcoumarins or standard +1.0 ml H2O2 + 1.0 ml FeSO4 + 1.0 ml salicylic acid +1.0 ml H2O2; A2 is the absorbance of 1.0 ml 3-arylcoumarins or standard +1.0 ml H2O2 + 1.0 ml FeSO4 + 1.0 ml absolute absolute ethanol +1.0 ml H2O2.

α-Glucosidase = target: T1, α-Glucosidase (Saccharomyces cerevisiae, UniProt P53341); assay: biochemical; assay type: biochemical; settings: for α-glucosidase inhibitory activity (in words): in vitro
T1 construct: purchased Sigma Aldrich G0660-750UN
Method: α-Glucosidase (G0660-750UN, Sigma Aldrich) and 4-Nitrophenyl α-D-glucopyranoside (PNPG, Macklin) were dissolved in phosphate buffer (pH 6.8, 100 mM), and the test compounds were dissolved in DMSO solution. The experiment was divided into blank group, control group, sample blank group, and sample group. The reagents were loaded in 96-well plates at the dose of the table (Table 8). The solution was bathed in 37 °C water for 10 min, and then enzyme solution was added. After reaction at 37 °C for 20 min, 70 μL Na2CO3 solution ([…]) was added to stop the reaction. All experiments were run in triplicate. […] Since PNPG can produce glucose and p-Nitrophenol (PNP) under the action of α-glucosidase, PNP has the greatest absorption at 405 nm. The absorbance was determined by the microplate reader, and the inhibition rate of α-glucosidase and the IC50 value of each sample were calculated according to the formula. Inhibition rate %={[(AC−AB)−(AS−ASB)]/(AC−AB)}×100% where AC is the absorbance of control group; AB is the absorbance of blank group; AS is the absorbance of sample group; ASB is the absorbance of sample blank group.

AGEs formation = assay: In vitro inhibitory activity of AGEs formation (bovine serum albumin/glucose); assay type: biochemical; settings: mean ± SD (n = 3)
Method: To prepare the AGEs reaction solution, 10 mg/mL of bovine serum albumin in 50 mM PBS (pH 7.4) was added to 0.2 M glucose, and 0.02% sodium azide was added to prevent bacterial growth. The reaction mixture (3.0 ml) was then mixed with various concentrations (0.5–1000 μg/mL) of the target compounds (1.0 ml) dissolved in DMSO. After incubating at 37 °C for 14 d, the fluorescence intensity of AGE was determined by a fluorospectrophotometer (PE, USA) with excitation and emission wavelengths at 350 nm and 420 nm, respectively. All experiments were run in triplicate. Aminoguanidine hydrochloride was used as a reference compound. The inhibition rate of AGEs formation and the IC50 value of each sample were calculated according to the formula. Inhibition rate %={[(AC−AB)−(AS−ASB)]/(AC−AB)}×100% where AC is the absorbance of control group(1.0 ml glucose +1.0 ml bovine serum albumin +1.0 ml sodium azide +1.0 ml DMSO); AB is the absorbance of blank group(1.0 ml PBS +1.0 ml bovine serum albumin +1.0 ml sodium azide +1.0 ml DMSO); AS is the absorbance of sample group (1.0 ml glucose +1.0 ml bovine serum albumin +1.0 ml sodium azide +1.0 ml target compound solution or Aminoguanidine hydrochloride solution); ASB is the absorbance of sample blank group (1.0 ml PBS +1.0 ml bovine serum albumin +1.0 ml sodium azide +1.0 ml target compound solution or Aminoguanidine hydrochloride solution).

T1 sequence (P53341 whole entry): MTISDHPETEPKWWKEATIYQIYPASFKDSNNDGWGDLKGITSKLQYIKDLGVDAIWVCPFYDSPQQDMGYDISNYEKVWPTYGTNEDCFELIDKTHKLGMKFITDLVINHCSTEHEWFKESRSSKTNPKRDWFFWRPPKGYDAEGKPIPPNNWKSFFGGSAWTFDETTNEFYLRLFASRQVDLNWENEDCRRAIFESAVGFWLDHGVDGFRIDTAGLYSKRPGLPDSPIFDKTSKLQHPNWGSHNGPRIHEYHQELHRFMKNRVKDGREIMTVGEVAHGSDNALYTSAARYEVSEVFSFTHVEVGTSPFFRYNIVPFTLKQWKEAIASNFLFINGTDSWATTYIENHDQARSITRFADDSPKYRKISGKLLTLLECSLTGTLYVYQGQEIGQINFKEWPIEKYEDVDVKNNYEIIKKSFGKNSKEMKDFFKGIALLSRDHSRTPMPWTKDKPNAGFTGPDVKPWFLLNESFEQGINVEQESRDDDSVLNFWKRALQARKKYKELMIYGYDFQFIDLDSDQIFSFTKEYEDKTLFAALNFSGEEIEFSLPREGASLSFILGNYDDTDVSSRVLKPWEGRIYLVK

COc1ccc2cc(-c3ccc(O)cc3)c(=O)oc2c1 [Compound 26, 7-Methoxy-3-(4-hydroxyphenyl)-coumarin]
IC50 [1]: 68.7 ± 13.4 µM | IC50 [2]: > 1000 µM | IC50 (α-Glucosidase): > 1000 µM | IC50 (AGEs formation): 65.9 ± 1.34 µM | melting point: 209 to 209.8 °C

O=c1oc2cc(O)ccc2cc1-c1ccccc1O [Compound 16, 7-Hydroxy-3-(2-hydroxyphenyl)-coumarin]
IC50 [1]: > 1000 µM | IC50 [2]: > 1000 µM | IC50 (α-Glucosidase): 10.2 ± 0.75 µM | α-glucosidase inhibitory activity (in words) (α-Glucosidase): moderate to excellent inhibitory activity | IC50 (AGEs formation): 20.47 ± 0.2 µM | melting point: 200.3 to 202.3 °C

COc1ccc(-c2cc3cc(O)ccc3oc2=O)cc1OC [Compound 39, 6-Hydroxy-3-(3,4-dimethoxyphenyl)-coumarin]
IC50 [1]: > 1000 µM | IC50 [2]: > 1000 µM | IC50 (α-Glucosidase): 13.1 ± 0.57 µM | α-glucosidase inhibitory activity (in words) (α-Glucosidase): moderate to excellent inhibitory activity | IC50 (AGEs formation): 8.02 ± 0.2 µM | melting point: 216.1 to 217.9 °C

O=c1oc2cc(O)ccc2cc1-c1ccc(O)c(O)c1 [Compound 29, 7-Hydroxy-3-(3,4-dihydroxyphenyl)-coumarin]
IC50 [1]: 11.85 ± 0.04 µM | IC50 [2]: 982 ± 30 µM | IC50 (α-Glucosidase): 29.9 ± 5.15 µM | IC50 (AGEs formation): 7.48 ± 0.59 µM | melting point: 306 to 307.8 °C

COc1ccc2oc(=O)c(-c3ccc(O)cc3)cc2c1 [Compound 27, 6-Methoxy-3-(4-hydroxyphenyl)-coumarin]
IC50 [1]: 42 ± 0.97 µM | IC50 [2]: > 1000 µM | IC50 (α-Glucosidase): 70.3 ± 2.95 µM | IC50 (AGEs formation): 64.5 ± 0.78 µM | melting point: 195.6 to 197.2 °C

COc1ccc(-c2cc3c(O)cc(O)cc3oc2=O)cc1OC [Compound 42, 5,7-Dihydroxy-3-(3,4-dimethoxyphenyl)-coumarin]
IC50 [1]: 5.89 ± 0.06 µM | IC50 [2]: > 1000 µM | IC50 (α-Glucosidase): 39.1 ± 0.76 µM | IC50 (AGEs formation): 18.3 ± 0.38 µM | melting point: 322 to 324.1 °C

Cc1ccccc1-c1cc2cccc(O)c2oc1=O [Compound 10, 8-Hydroxy-3-(2-methylphenyl)-coumarin]
IC50 [1]: > 1000 µM | IC50 [2]: > 1000 µM | IC50 (α-Glucosidase): > 1000 µM | IC50 (AGEs formation): > 1000 µM | melting point: 212.7 to 213 °C

COc1ccc(-c2cc3ccc(O)c(O)c3oc2=O)cc1 [Compound 34, 7,8-Dihydroxy-3-(4-methoxyphenyl)-coumarin]
IC50 [1]: 3.66 ± 0.03 µM | IC50 [2]: > 1000 µM | IC50 (α-Glucosidase): 18.8 ± 1.02 µM | IC50 (AGEs formation): > 1000 µM | melting point: 234.4 to 235.4 °C

Cc1ccc(C)c(-c2cc3cccc(O)c3oc2=O)c1 [Compound 21, 8-Hydroxy-3-(2,5-dimethylphenyl)-coumarin]
IC50 [1]: > 1000 µM | IC50 [2]: > 1000 µM | IC50 (α-Glucosidase): > 1000 µM | IC50 (AGEs formation): 213 ± 4.77 µM | melting point: 183.2 to 187.4 °C

Cc1ccc(C)c(-c2cc3ccc(O)c(O)c3oc2=O)c1 [Compound 33, 7,8-Dihydroxy-3-(2,5-dimethylphenyl)-coumarin]
IC50 [1]: 2.98 ± 0.03 µM | IC50 [2]: 903 ± 41.9 µM | IC50 (α-Glucosidase): > 1000 µM | melting point: 190.3 to 190.5 °C

O=c1oc2c(O)cccc2cc1-c1ccc(F)cc1 [Compound 19, 8-Hydroxy-3-(4-fluorophenyl)-coumarin]
IC50 [1]: 39.1 ± 3.83 µM | IC50 [2]: > 1000 µM | IC50 (α-Glucosidase): > 1000 µM | IC50 (AGEs formation): 34.7 ± 1.84 µM | melting point: 201.3 to 203.1 °C

Cc1ccc(-c2cc3ccc(O)c(O)c3oc2=O)cc1 [Compound 23, 7,8-Dihydroxy-3-(4-methylphenyl)-coumarin]
IC50 [1]: 3.21 ± 0.04 µM | IC50 [2]: 801 ± 41.8 µM | IC50 (α-Glucosidase): 25.5 ± 0.52 µM | IC50 (AGEs formation): 75.9 ± 10.7 µM | melting point: 226.8 to 227.5 °C

O=c1oc2c(O)c(O)ccc2cc1-c1ccc(F)cc1 [Compound 32, 7,8-Dihydroxy-3-(4-fluorophenyl)-coumarin]
IC50 [1]: 2.06 ± 0.07 µM | IC50 [2]: 970 ± 70.9 µM | IC50 (α-Glucosidase): > 1000 µM | IC50 (AGEs formation): 33.5 ± 1.99 µM | melting point: 259.8 to 260.7 °C

CCN(CC)c1ccc2cc(-c3ccc(O)cc3)c(=O)oc2c1 [Compound 41, 7-Diethylamino-3-(4-hydroxyphenyl)-coumarin]
IC50 [1]: > 1000 µM | IC50 [2]: > 1000 µM | IC50 (α-Glucosidase): 13.4 ± 0.65 µM | IC50 (AGEs formation): > 1000 µM | melting point: 190.2 to 191.8 °C

Cc1ccc(-c2cc3cccc(O)c3oc2=O)cc1 [Compound 8, 8-Hydroxy-3-(4-methylphenyl)-coumarin]
IC50 [1]: > 1000 µM | IC50 [2]: > 1000 µM | IC50 (α-Glucosidase): 69.6 ± 5.32 µM | IC50 (AGEs formation): 31.9 ± 2.02 µM | melting point: 211.7 to 212.5 °C

O=c1oc2ccccc2cc1-c1ccc(F)cc1 [Compound 7, 3-(4-Fluorophenyl)-coumarin]
IC50 [1]: > 1000 µM | IC50 [2]: > 1000 µM | IC50 (α-Glucosidase): > 1000 µM | IC50 (AGEs formation): > 1000 µM | melting point: 196.7 to 197.7 °C

COc1ccc(-c2cc3ccc(O)c(O)c3oc2=O)cc1OC [Compound 43, 7,8-Dihydroxy-3-(3,4-dimethoxyphenyl)-coumarin]
IC50 [1]: 4.24 ± 0.06 µM | IC50 [2]: 887 ± 15.8 µM | IC50 (α-Glucosidase): > 1000 µM | IC50 (AGEs formation): 25.2 ± 1.72 µM | melting point: 290.5 to 291.9 °C

O=c1oc2c(O)c(O)ccc2cc1-c1ccc(O)cc1 [Compound 30, 7,8-Dihydroxy-3-(4-hydroxyphenyl)-coumarin]
IC50 [1]: 2.18 ± 0.04 µM | IC50 [2]: 697 ± 19.6 µM | IC50 (α-Glucosidase; mean ± SD (n = 3), read-out: α-Glucosidase inhibitory activity IC50 Value): 19 ± 1.11 µM | IC50 (AGEs formation): > 1000 µM | melting point: 287.5 to 288.9 °C

COc1ccc(-c2cc3cccc(O)c3oc2=O)cc1OC [Compound 38, 8-Hydroxy-3-(3,4-dimethoxyphenyl)-coumarin]
IC50 [1]: 16.3 ± 0.44 µM | IC50 [2]: > 1000 µM | IC50 (α-Glucosidase): 20.2 ± 0.44 µM | IC50 (AGEs formation): 22.3 ± 1.34 µM | melting point: 162.8 to 163.8 °C

COc1ccc(-c2cc3cccc(O)c3oc2=O)cc1 [Compound 22, 8-Hydroxy-3-(4-methoxyphenyl)-coumarin]
IC50 [1]: 15.63 ± 0.11 µM | IC50 [2]: > 1000 µM | IC50 (α-Glucosidase): > 1000 µM | IC50 (AGEs formation): 23.1 ± 0.82 µM

O=c1oc2cc(O)cc(O)c2cc1-c1ccc(F)cc1 [Compound 31, 5,7-Dihydroxy-3-(4-fluorophenyl)-coumarin]
IC50 [1]: 595 ± 11.3 µM | IC50 [2]: > 1000 µM | IC50 (α-Glucosidase): 19.1 ± 0.26 µM | melting point: 267 to 267.6 °C

Cc1ccc(C)c(-c2cc3ccc(O)cc3oc2=O)c1 [Compound 20, 7-Hydroxy-3-(2,5-dimethylphenyl)-coumarin]
IC50 [1]: > 1000 µM | IC50 [2]: > 1000 µM | IC50 (α-Glucosidase): > 1000 µM | IC50 (AGEs formation): > 1000 µM | melting point: 189.1 to 190.6 °C
